Laboratory results taken from the Kinase Knowledgebase extract (Sharma et al. 2016).

target: EGFR (UniProt P00533)
Sequence (P00533 whole entry, looked up): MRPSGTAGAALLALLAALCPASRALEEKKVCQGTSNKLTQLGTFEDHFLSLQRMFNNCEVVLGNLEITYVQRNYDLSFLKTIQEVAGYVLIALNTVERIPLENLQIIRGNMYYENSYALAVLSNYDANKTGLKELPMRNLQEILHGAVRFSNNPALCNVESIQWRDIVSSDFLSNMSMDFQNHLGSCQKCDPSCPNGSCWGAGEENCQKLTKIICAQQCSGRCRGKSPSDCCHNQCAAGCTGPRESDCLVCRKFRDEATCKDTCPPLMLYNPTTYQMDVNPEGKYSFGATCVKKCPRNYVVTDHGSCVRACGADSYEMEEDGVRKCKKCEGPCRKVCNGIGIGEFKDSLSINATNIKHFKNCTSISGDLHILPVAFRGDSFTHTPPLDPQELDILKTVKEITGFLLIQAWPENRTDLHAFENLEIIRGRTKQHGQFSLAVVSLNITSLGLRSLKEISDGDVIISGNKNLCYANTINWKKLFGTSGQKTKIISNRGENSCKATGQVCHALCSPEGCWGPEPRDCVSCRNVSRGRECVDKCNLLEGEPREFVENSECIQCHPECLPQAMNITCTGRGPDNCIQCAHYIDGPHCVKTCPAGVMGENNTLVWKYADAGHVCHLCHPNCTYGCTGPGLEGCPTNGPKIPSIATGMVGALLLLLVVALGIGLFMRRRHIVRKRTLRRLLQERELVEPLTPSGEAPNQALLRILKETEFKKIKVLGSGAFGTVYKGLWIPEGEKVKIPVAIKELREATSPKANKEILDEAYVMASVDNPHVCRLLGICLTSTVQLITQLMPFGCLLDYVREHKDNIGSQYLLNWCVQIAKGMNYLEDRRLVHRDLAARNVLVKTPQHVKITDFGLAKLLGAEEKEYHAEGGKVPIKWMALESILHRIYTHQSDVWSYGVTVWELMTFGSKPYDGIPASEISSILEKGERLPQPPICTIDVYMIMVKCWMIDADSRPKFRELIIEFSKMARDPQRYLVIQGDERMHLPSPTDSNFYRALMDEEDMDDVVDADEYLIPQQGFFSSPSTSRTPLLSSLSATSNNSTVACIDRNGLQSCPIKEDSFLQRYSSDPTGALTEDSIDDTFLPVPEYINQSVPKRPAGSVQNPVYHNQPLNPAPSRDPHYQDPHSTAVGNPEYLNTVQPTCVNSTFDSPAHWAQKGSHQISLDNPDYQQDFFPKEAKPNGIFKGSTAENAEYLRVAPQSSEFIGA

| Structure (SMILES) | IC50 [nM] |
| --- | --- |
| Brc1cccc(Nc2ncnc3cc(NCCCN4CCOCC4)ncc23)c1 | 1.9 |
| CN(C)CCCCCNc1cc2ncnc(Nc3cccc(Br)c3)c2cn1 | 8.5 |
| O=C(O)CCNc1cc2ncnc(Nc3cccc(Br)c3)c2cn1 | 0.62 |
| CN(C)CCN(C)c1cc2ncnc(Nc3cccc(Br)c3)c2cn1 | 40 |
| CN(CCO)c1cc2ncnc(Nc3cccc(Br)c3)c2cn1 | 2.6 |
| CN(C)CCCNc1cc2ncnc(Nc3cccc(Br)c3)c2cn1 | 8.9 |
| OCCN(CCO)CCCNc1cc2ncnc(Nc3cccc(Br)c3)c2cn1 | 1.2 |
| Brc1cccc(Nc2ncnc3cc(NCCc4c[nH]cn4)ncc23)c1 | 0.912 |
| OCC(O)CNc1cc2ncnc(Nc3cccc(Br)c3)c2cn1 (stereo unspecified) | 0.93 |
| Brc1cccc(Nc2ncnc3cc(NCCCCN4CCOCC4)ncc23)c1 | 5.5 |
| CNc1ccc2ncnc(Nc3cccc(Br)c3)c2n1 | 3.2 |
| Nc1cc2ncnc(Nc3ccc(Br)cc3)c2cn1 | 25.7 |
| OCCN(CCO)CCNc1cc2ncnc(Nc3cccc(Br)c3)c2cn1 | 9.3 |
| CN(CC(O)CO)c1cc2ncnc(Nc3cccc(Br)c3)c2cn1 (stereo unspecified) | 3.2 |
| Fc1ccc2c(Nc3cccc(Br)c3)ncnc2n1 | 692 |
| CN(C)CCNc1cc2ncnc(Nc3cccc(Br)c3)c2cn1 | 45.7 |
| OCN(CO)c1cc2ncnc(Nc3cccc(Br)c3)c2cn1 | 14.1 |
| NNc1cc2ncnc(Nc3cccc(Br)c3)c2cn1 | 7.2 |
| COc1cc2ncnc(Nc3cccc(Br)c3)c2cn1 | 39.8 |
| Brc1cccc(Nc2ncnc3cc(NCCN4CCOCC4)ncc23)c1 | 3.2 |

Further compounds by falling IC50, results first:

| IC50 [nM] | Structure (SMILES) |
| --- | --- |
| 132 | COc1cccc(Nc2ncnc3cc(N)ncc23)c1 |
| 29.5 | CC(=O)Nc1cc2ncnc(Nc3cccc(Br)c3)c2cn1 |
| 16.2 | CN(CC(=O)O)c1cc2ncnc(Nc3cccc(Br)c3)c2cn1 |
| 12 | OCCN(CCO)c1cc2ncnc(Nc3cccc(Br)c3)c2cn1 |
| 7.4 | CN(C)CCCCNc1cc2ncnc(Nc3cccc(Br)c3)c2cn1 |
| 5.6 | Cc1cccc(Nc2ncnc3cc(NCCCN4CCN(C)CC4)ncc23)c1 |
| 5.5 | Cc1cccc(Nc2ncnc3cc(NCCCCN(C)C)ncc23)c1 |
| 5 | CN1CCN(CCCNc2cc3ncnc(Nc4cccc(Br)c4)c3cn2)CC1 |
| 3.5 | Cc1cccc(Nc2ncnc3cc(NCCCn4ccnc4)ncc23)c1 |
| 1.5 | O=C(O)CNc1cc2ncnc(Nc3cccc(Br)c3)c2cn1 |
| 1.4 | O=S(=O)(O)CCNc1cc2ncnc(Nc3cccc(Br)c3)c2cn1 |
| 0.813 | Brc1cccc(Nc2ncnc3cnc(NCCN4CCOCC4)nc23)c1 |
| 0.512 | Brc1cccc(Nc2ncnc3cc(NCCCn4ccnc4)ncc23)c1 |
| 0.28 | O=C(O)CCCNc1cc2ncnc(Nc3cccc(Br)c3)c2cn1 |
| 0.25 | Brc1cccc(Nc2ncnc3cnc(NCCc4c[nH]cn4)nc23)c1 |
| 0.25 | OCCNc1cc2ncnc(Nc3cccc(Br)c3)c2cn1 |
